Consider one compound from PMC11460631, “Inhibition of transient receptor potential vanilloid 3 channels by antimalarial hydroxychloroquine alleviates TRPV3-dependent dermatitis” (The Journal of Biological Chemistry, 2024).

The target of one test is T1, mTRPM8 (Mus musculus, UniProt Q8R4D5).
T1 construct: YFP or GFP; expressed in transfected cells; host or cells: HEK293T
Description: Whole-cell current recordings, mTRPM8. The format is cell-based, murine. As for the experimental part:
To elucidate the specificity of HCQ inhibition on TRPV3, we conducted whole-cell current recordings on other known pruritus-related TRP channels, such as hTRPA1, mTRPV1, mTRPV4, and mTRPM8 (Fig. 3, A and F). […] Because of the relatively larger inhibition of HCQ on mTRPM8 current, we tested the concentration dependence of HCQ on mTRPM8 channels.
(§1) HEK293T cells are cultured using Dulbecco's modified Eagle's medium containing 10% fetal bovine serum and 1% penicillin-streptomycin in a cell incubator with 5% CO2 at 37 °C. Plasmids of murine TRPV1, TRPV4, TRPM8, and human TRPV3, TRPA1 are labeled with YFP or GFP as indicators for subsequent electrophysiological recordings. Complementary DNA constructs of ion channels were transiently transfected with Lipofectamine 3000 (Invitrogen). And 12 to 18 h after transient transfection, electrophysiological recordings were performed.
Patch-clamp recordings were carried out with a HEKA EPC10 amplifier controlled by PatchMaster software (HEKA; https://www.heka.com/products/products_main.html#soft_pm) ([36]). Patch pipettes were prepared from borosilicate glass and fire-polished to the resistance of 3 to 8 MΩ by P-97 puller for whole-cell recordings. For single-channel recordings, patch pipettes were fire-polished to a higher resistance of 6 to 10 MΩ. Both bath solution and pipette solution contained 130 mM NaCl, 10 mM glucose, 0.2 mM EDTA, and 3 mM Hepes and were adjusted to pH 7.2 to 7.4 with NaOH. Whole-cell recordings and single-channel recordings were performed at ± 80 mV. The current was sampled at 10 kHz and filtered at 2.9 kHz. All recordings were performed at room temperature (25 °C). A gravity-driven system (RSC-200, Bio-Logic) with freely rotated perfusion tubes was used for the perfusion of ligands. Bath and ligand solutions were delivered through separate tubes to minimize the mixing of solutions. […]
All data from whole-cell recordings were analyzed in Igor Pro (WaveMetrics). IC50 values were determined by fitting the Hill equation to concentration-response relationships. […]

A further test addresses T2, TRPV3 (Homo sapiens, UniProt Q8NET8).
T2 construct: YFP or GFP; expressed in transfected cells; host or cells: HEK293T
T2 sequence (Q8NET8 1-790): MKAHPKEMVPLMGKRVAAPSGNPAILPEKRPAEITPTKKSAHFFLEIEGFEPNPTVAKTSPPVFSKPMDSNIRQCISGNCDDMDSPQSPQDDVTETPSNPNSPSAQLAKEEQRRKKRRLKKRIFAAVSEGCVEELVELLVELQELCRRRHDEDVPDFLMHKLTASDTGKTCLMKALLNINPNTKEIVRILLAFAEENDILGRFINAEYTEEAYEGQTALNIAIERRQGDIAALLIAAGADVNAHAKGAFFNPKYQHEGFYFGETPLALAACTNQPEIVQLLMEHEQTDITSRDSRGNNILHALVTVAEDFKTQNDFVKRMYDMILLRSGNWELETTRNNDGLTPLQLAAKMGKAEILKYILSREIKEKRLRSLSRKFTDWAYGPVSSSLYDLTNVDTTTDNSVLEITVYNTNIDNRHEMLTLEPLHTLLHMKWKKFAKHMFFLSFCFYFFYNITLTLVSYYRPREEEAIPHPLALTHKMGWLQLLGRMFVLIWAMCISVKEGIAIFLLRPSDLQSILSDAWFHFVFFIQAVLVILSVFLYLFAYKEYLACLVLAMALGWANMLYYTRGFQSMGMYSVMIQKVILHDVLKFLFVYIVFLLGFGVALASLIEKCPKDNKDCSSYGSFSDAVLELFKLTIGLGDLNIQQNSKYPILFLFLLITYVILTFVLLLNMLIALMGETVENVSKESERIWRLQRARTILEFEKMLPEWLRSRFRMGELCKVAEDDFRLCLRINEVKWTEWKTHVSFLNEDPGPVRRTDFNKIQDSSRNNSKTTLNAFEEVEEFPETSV
Description: Calcium imaging (Fluo-4/AM) of TRPV3-expressing HEK293T cells. The format is cell-based. On the procedure: as §1
Calcium imaging assays were performed as described previously ([37]). Transiently transfected HEK293 cells seeded on 25 mm coverslips were washed twice with an extracellular solution containing 140 mM NaCl, 5 mM KCl, 2 mM MgCl2, 2 mM CaCl2, 10 mM glucose, and 10 mM Hepes (pH 7.4), followed by incubation in 2 ml of extracellular solution supplemented with 2 μM Fluo-4/AM as a Molecular Probes at room temperature for 60 min. Fluorescence images of HEK293T cells were acquired with a Nikon Eclipse Ti2 microscope with an optiMOS charge-coupled device camera controlled by the Ocular Software ([…]; https://www.photometrics.com/products/ocular).

Each structure is given as a SMILES string.

Broadly, the IC50 is the concentration that inhibits the measured activity by half.

T1 sequence (Q8R4D5 whole entry): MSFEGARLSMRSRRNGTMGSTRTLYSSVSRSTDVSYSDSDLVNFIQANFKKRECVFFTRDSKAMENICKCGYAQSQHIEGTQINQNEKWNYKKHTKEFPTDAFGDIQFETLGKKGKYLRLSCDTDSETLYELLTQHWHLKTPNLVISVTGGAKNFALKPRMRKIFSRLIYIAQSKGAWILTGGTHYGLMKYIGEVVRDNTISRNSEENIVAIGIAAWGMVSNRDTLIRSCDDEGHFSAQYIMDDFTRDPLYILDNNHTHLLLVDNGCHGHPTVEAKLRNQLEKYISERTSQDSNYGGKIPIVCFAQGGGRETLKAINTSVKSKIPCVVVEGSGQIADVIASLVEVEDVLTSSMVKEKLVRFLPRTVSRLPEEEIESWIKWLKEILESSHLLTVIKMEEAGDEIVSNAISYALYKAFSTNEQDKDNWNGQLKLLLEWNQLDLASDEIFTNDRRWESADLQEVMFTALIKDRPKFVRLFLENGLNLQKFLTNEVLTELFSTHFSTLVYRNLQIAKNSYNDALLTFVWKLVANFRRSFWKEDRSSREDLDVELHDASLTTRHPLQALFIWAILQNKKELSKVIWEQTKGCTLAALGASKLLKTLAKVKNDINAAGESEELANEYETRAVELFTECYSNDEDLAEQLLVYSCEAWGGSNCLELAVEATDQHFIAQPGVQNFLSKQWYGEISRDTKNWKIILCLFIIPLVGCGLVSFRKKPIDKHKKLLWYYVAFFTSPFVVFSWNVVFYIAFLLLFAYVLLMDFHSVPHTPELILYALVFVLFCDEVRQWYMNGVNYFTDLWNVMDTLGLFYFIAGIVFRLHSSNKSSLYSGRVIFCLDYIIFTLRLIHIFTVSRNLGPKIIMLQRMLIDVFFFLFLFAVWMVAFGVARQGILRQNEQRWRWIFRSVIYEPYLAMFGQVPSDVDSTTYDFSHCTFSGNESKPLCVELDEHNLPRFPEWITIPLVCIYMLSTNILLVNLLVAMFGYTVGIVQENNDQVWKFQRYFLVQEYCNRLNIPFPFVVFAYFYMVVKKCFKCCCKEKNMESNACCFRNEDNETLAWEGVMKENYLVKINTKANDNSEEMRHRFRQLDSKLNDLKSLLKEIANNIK

Consider `CCN(CCO)CCCC(C)Nc1ccnc2cc(Cl)ccc12` (centres unmarked) [HCQ, hydroxychloroquine], for which the “reduction of mTRPM8 current” value at mTRPM8 (100 μM HCQ, current activated by 1 mM menthol) is 27.94% ± 10.91%. Also, the IC50 at mTRPM8 (concentration dependence, whole-cell, read-out: IC50 on mTRPM8 channels) came out at 263 ± 88.6 µM. The “IC50 of mTRPM8 relative to IC50 of hTRPV3” value on mTRPM8 (selectivity ratio) is reported as “more than 5 fold”. Also, the “calcium influx, area under the curve (AUC)” value on TRPV3 (100 μM HCQ mixed with 1 mM 2-APB) is on record as 8.65 ± 0.83; at TRPV3 (300 μM HCQ mixed with 1 mM 2-APB) it was 0.28 ± 0.05.
